The test system of one data set is Cooperia oncophora. The data set is described as follows: In vivo efficacy in challenged calves, percent reduction of nematodes. Particulars: subcutaneous injection. The method, then: (§1) Calves of 2-6 months of age were challenged with Ostertagia ostertagi (approx. 20,000 larvae L3/calf) on Day 0 and Cooperia oncophora (approx. 20,000 larvae L3/calf) on Day 1 by oral drench. At day 28, animals were treated by subcutaneous injection at a dose of 0.5 mg/kg (resp. 0.75, 1, 1.5 or 2.5 mg/kg) of a solution of compound 5. On days 35-37 animals were necropsied for extraction and counting of nematodes present. Efficacy was calculated as the percent reduction of nematodes compared to the control group. For calculation the geometric mean of the nematode numbers in treatment and control group was determined (7 animals in treatment group, 8 animals in control group). The solution A used for injection contained in 1 ml: compound 5 (100 mg), L-tartaric acid 52.6 mg, propylene glycol 400 mg, benzyl alcohol 20 mg, water for injection up to 1 ml. A control group was treated by injection of vehicle only. The solution B used for injection contained in 1 ml: (50 mg Compound 5; 24.74 mg L-tartaric acid, water for injection up to 1 ml).

Another data set concerns Ostertagia ostertagi. The data set is described as above. Particulars: subcutaneous injection. On the procedure:
as §1

Data set [1] is described as follows: Solubility of synthesized tartrate salt and free base of compound 4. Particulars: synthesized tartrate salt; read-out: solubility (can be dissolved). In kind it is physicochemical. On the procedure: The free base of compound 4 has a solubility of 0.8 mg/ml
[2] abbreviates: Solution A (with propylene glycol), 0.5 mg/kg bodyweight.
[3] abbreviates: Solution A (with propylene glycol), 1.5 mg/kg bodyweight.
Setting [4] is: Solution A (with propylene glycol), 2.5 mg/kg bodyweight.
Where [5] appears, read: Solution B (without propylene glycol), 0.75 mg/kg bodyweight.
The mark [6] stands for this setting: Solution B (without propylene glycol), 1 mg/kg bodyweight.

Counter-ions that a name gives are not always drawn.

Regarding `COc1cc(NCCNC(=O)/C=C/C(C)(F)F)ccn1` [tartrate salt of compound 5], the “reduction of C. oncophora” value in the data set with Cooperia oncophora (setting [2]) stood at 97.0%; in the data set with Cooperia oncophora (setting [3]), 100%; in the data set on Cooperia oncophora (setting [4]), 100%; in the data set on Cooperia oncophora (setting [5]), 94.0%; in the data set with Cooperia oncophora (setting [6]), 96.8%. The “reduction of O. ostertagi” value in the data set on Ostertagia ostertagi (setting [2]) is on record as 98.7%; in the data set on Ostertagia ostertagi (setting [3]), 100%; in the data set on Ostertagia ostertagi (setting [4]), 99.8%; with Ostertagia ostertagi (Solution B (without propylene glycol), 0.5 mg/kg bodyweight), 78.6%; in the data set on Ostertagia ostertagi (setting [5]) it was 99.8%; in the data set with Ostertagia ostertagi (setting [6]), 99.9%.
As for `CCOc1cc(NCCNC(=O)/C=C/C(F)(F)F)ccn1` [tartrate salt of compound 4, tartrate salt of (E)-N-[2-[(2-ethoxy-4-pyridyl)amino]ethyl]-4,4,4-trifluoro-but-2-enamide], the solubility in data set [1] is 145 mg/mL.

By solubility is commonly meant the concentration that dissolves in the medium under given conditions.
